Test results as given in ChEMBL document CHEMBL4184137, “Lysine Deacetylase Inhibitors in Parasites: Past, Present, and Future Perspectives” (J Med Chem, 2017).

Legend:
[1] = system: Plasmodium falciparum; assay: Gametocytocidal activity against transgenic GFP-fused Plasmodium falciparum NF54 late stage gametocytes after 72 hrs by Mitotracker Red CMH2XRos staining based microscopic method; format: functional, organism-based; details: NF54, 72 h
[2] = system: Plasmodium falciparum; assay: Gametocytocidal activity against transgenic GFP-fused Plasmodium falciparum NF54 early stage gametocytes after 72 hrs by Mitotracker Red CMH2XRos staining based microscopic method; format: functional, organism-based; details: NF54, 72 h
[3] = Selectivity index, ratio of IC50 for HUVEC to IC50 for Plasmodium falciparum; format: toxicity; details: human, read-out: Ratio IC50
[4] = system: Plasmodium falciparum; assay: Antimalarial activity against Plasmodium falciparum infected in human erythrocytes after 24 hrs by microbeta scintillation counting-based [3H]-hypoxanthine incorporation assay; format: functional, organism-based
[5] = Selectivity index, ratio of IC50 for human NHDF cells to IC50 for Plasmodium falciparum; format: toxicity; details: read-out: Ratio IC50
[6] = Selectivity index, ratio of IC50 for human PTC cells to IC50 for Plasmodium falciparum; format: toxicity; details: read-out: Ratio IC50
[7] = Selectivity index, ratio of IC50 for human NFF cells to IC50 for Plasmodium falciparum; format: toxicity; details: read-out: Ratio IC50
[8] = Inhibition of Plasmodium falciparum Sir2A
[9] = system: Leishmania infantum; assay: Antiproliferative activity against promastigote stage of Leishmania infantum measured for 1 min and 45 secs by propidium iodide staining-based flow cytometry; format: functional, organism-based
[10] = system: Schistosoma mansoni; assay: Antiparasitic activity against Schistosoma mansoni assessed as pairing at 20 uM after 6 days relative to control; format: functional
[11] = system: Leishmania infantum; assay: Antileishmanial activity against amastigote stage of Leishmania infantum MHOM/MA671TMAP263 expressing luciferase after 72 hrs by luciferase assay; format: functional, organism-based; details: MHOM/MA671TMAP263, 72 h
[12] = system: Schistosoma mansoni; assay: Antiparasitic activity against Schistosoma mansoni assessed as cumulative egg reduction at 20 uM; format: functional; set-up: scale not given: the % may be the effect or the level left
[13] = system: Schistosoma mansoni; assay: Antiparasitic activity against Schistosoma mansoni assessed cell viability at 20 uM after 5 days; format: functional
[14] = system: Plasmodium falciparum; assay: Antiplasmodial activity against Plasmodium falciparum 3D7 assessed as growth inhibition after 24 hrs by measuring incorporation of [3H]-hypoxanthine by liquid scintillation counting method; format: functional, organism-based
[15] = system: Leishmania infantum; assay: Antiproliferative activity against amastigote stage of Leishmania infantum measured for 1 min and 45 secs by propidium iodide staining-based flow cytometry; format: functional, organism-based
[16] = system: Toxoplasma gondii; assay: Antiparasitic activity against Toxoplasma gondii; format: functional, organism-based
[17] = system: Schistosoma mansoni; assay: Antiparasitic activity against Schistosoma mansoni assessed cell viability at 20 uM after 4 days; format: functional
[18] = system: Schistosoma mansoni; assay: Antiparasitic activity against Schistosoma mansoni assessed as pairing at 20 uM after 5 days relative to control; format: functional
[19] = system: Trypanosoma cruzi; assay: Antitrypanosomal activity against epimastigotes of Trypanosoma cruzi […] by Alamar Blue assay; format: functional, organism-based
[20] = Inhibition of recombinant Trypanosoma cruzi Sir2rp3

`O=C(CCCCCCC(=O)Nc1ccccc1)NO` [VORINOSTAT] showed an IC50 [1] of 1.68 to 6.65 µM and an IC50 [2] of 1.68 to 6.65 µM.
`CCCCc1nc2cc(/C=C/C(=O)NO)ccc2n1CCN(CC)CC` [PRACINOSTAT] gave a selectivity ratio [3] of 4 to 1250, an IC50 [4] of 0.08 to 0.15 µM and a selectivity ratio [5] of 4 to 1250. The selectivity ratio [6] was 4 to 1250 and the selectivity ratio [7] was 4 to 1250.
For `CC(NC(=O)c1ccccc1/N=C/c1c(O)ccc2ccccc12)c1ccccc1` (stereo unspecified) [SIRTINOL], the IC50 [8] was over 50 µM, the IC50 [9] was over 60 µM and the Activity [10] was 75%. The IC50 [11] was 30 µM, the Activity [12] was 42% and the Activity [13] was 100%. The IC50 [14] was 9 to 13 µM and the IC50 [15] was 30 µM.
In the case of `CCC(=O)CCCCC[C@@H]1NC(=O)[C@H]2CCCCN2C(=O)[C@H]([C@@H](C)CC)NC(=O)[C@H](Cc2cn(OC)c3ccccc23)NC1=O` [APICIDIN], the IC50 [16] is reported as 0.013 to 0.015 µM.
In the case of `CC(C(=O)Nc1cccc(/N=C/c2c(O)ccc3ccccc23)c1)c1ccccc1` (stereo unspecified) [SALERMIDE], the Activity [17] is reported as 100%, the Activity [18] is reported as 100% and the Activity [12] is reported as 95%. It also gave an EC50 [19] of 10.6 µM and an IC50 [20] of 1 µM.
